According to patent US20040049072A1, “RXR modulators with improved pharmacologic profile” (priority 1999, published 2004):
pEC50, pIC50: −log10 of the molar value. Entries after “also recorded” stand apart in the source; their conditions may differ.

Experiments:
db/db mouse = db/db mouse study (rodent model of Type II diabetes); conditions: for db/db mouse Glu. (D 14): plasma glucose, 100 mg/kg daily oral gavage; for db/db mouse Glu. (D 14) / db/db mouse Trigs. (D 14): day 14; for effect on the thyroid hormone axis / effect on triglycerides / insulin sensitizing activity / effect on glucose / insulin sensitizing activity with thyroid axis suppression and triglyceride elevations: rodent models of Type II Diabetes
Description: Mice (obtained from Jackson Laboratory), ZDF rats (obtained from Genetic Models Inc.) and fa/fa rats (obtained from either Charles River, or Harlan) were maintained on 12-hour light/dark cycle. […] Compounds were administered at the specified doses by oral gavage on the morning of each day of any experiment. Blood samples were obtained 3 hours after dosing from fed animals under anesthesia and collected into heparinized capillary tubes from the tail vein.
RXRα:PPARγ heterodimer = biological target: T1, RXRα:PPARγ heterodimer (Homo sapiens, UniProt P19793); assay: RXR:PPARγ heterodimer co-transfection assay in CV-1 cells; format: cell-based; conditions: for PPARγ CV-1 (%) Synergy: maximal response in presence of 100 nM BRL49653 relative to BRL49653 alone; for RXRα:PPARγ Heterodimer Cotransfection Assay Synerg Efficacy (%): maximal response in presence of 100 nM BRL relative to response of BRL alone; for RXRα:PPARγ Heterodimer Cotransfection Assay Agonist Efficacy (%): maximal response relative to response of BRL 49653; for activity on the RXRα:PPARγ heterodimer in combination with the PPARγ ligand: synergy mode, with BRL 49653
T1 construct: expressed in transfected cells; host or cells: CV-1 cells
T1 sequence (P19793 1-462): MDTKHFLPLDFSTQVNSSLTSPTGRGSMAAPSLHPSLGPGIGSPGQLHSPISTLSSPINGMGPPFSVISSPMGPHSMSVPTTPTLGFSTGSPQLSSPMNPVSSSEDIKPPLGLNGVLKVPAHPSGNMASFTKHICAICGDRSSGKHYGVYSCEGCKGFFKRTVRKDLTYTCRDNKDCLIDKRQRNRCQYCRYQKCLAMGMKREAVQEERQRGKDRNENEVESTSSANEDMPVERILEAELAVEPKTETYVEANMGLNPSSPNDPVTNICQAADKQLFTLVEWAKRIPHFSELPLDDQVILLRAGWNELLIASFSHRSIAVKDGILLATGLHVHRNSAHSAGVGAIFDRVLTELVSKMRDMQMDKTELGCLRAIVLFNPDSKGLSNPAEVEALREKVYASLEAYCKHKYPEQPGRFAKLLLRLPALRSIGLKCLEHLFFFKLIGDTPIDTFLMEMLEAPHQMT
T1 sequence (P37231 1-505 partner): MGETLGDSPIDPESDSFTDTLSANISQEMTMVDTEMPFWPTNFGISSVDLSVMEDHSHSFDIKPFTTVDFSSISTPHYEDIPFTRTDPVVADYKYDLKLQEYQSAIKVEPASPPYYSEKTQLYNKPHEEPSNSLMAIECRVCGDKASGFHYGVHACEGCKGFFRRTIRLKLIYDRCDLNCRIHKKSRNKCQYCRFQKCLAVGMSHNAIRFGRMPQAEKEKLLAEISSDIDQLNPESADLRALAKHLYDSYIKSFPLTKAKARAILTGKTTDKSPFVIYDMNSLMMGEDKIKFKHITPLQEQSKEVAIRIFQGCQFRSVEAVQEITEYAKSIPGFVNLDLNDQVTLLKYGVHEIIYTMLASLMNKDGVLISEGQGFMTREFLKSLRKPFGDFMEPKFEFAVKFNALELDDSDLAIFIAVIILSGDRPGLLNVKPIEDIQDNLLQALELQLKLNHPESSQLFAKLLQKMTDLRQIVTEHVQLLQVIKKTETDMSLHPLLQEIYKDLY
Description: For determination of agonist activity in the context of the RXR:RAR heterodimer or the RXR:PPARγ heterodimer, media containing compounds of the present invention in concentrations ranging from 10^−10 to 10^−5 M were added to the cells.
Compounds of the present invention were also tested for the ability to synergize with a PPARγ agonist in the context of an RXR heterodimer. […] Efficacy of the compounds of the present invention in the agonist and synergy assays was calculated as the maximum response obtained over the range of the dose response curve relative to the maximum response obtained by the reference agonist. Antagonist efficacy was determined as a function (%) of maximal inhibition.
To examine the effects of the compounds of the present invention on the transcriptional properties of the RXR:PPARγ, a heterodimer cotransfection assay as described above was employed.

RXRα homodimer (RXR:RXR) = biological target: T2, RXRα homodimer (RXR:RXR) (Homo sapiens, UniProt P19793); assay: RXR homodimer co-transfection assay in CV-1 cells; format: cell-based; conditions: for activity on the RXR:RXR homodimer: cotransfection assay; for RXR:RXR CV-1 (%) Antag.: maximal repression (100%) in presence of 32 nM LGD1069; for RXR:RXR CV-1 (%) Ag.: maximal response relative to ATRA; for pEC50 / pIC50: not calculated if efficacy <10%; for pEC50: read-out: RXRα Homodimer Cotransfection Assay Agonist EC50; for pIC50: in presence of LGD1069, read-out: RXRα Homodimer Cotransfection Assay Antagonist IC50
T2 sequence (P19793 1-462): T1 sequence (P19793 1-462)
Excerpt: In the co-transfection assay, cloned cDNA for one or more IRs (e.g., human RARα, RXRα, or PPARγ), alone or in combination (i.e. for heterodimer assays) under the control of a constitutive promoter (e.g., the SV 40, RSV or CMV promoter) is introduced by transfection (a procedure to introduce exogenous genes into cells) into a background cell substantially devoid of endogenous IRs. These introduced gene(s) direct the recipient cells to make the IR protein(s) of interest. A further gene is also introduced (co-transfected) into the same cells in conjunction with the IR gene(s). This further gene, comprising the cDNA for a reporter protein, such as firefly luciferase (LUC), controlled by an appropriate hormone responsive promoter containing a hormone response element (HRE). This reporter plasmid functions as a reporter for the transcriptional-modulating activity of the target IR(s). Thus, the reporter acts as a surrogate for the products (mRNA then protein) normally expressed by a gene under control of the target receptor(s) and their native hormone(s).
Exposing the transfected cells to an agonist ligand compound increases reporter activity in the transfected cells. This activity can be conveniently measured, e.g., by increasing luciferase production and enzymatic activity, which reflects compound-dependent, IR-mediated increases in reporter transcription. […] Increasing concentrations of an antagonist will decrease the reporter signal (e.g., luciferase production). The co-transfection assay is therefore useful to detect both agonists and antagonists of specific IRs. Furthermore, it determines not only whether a compound interacts with a particular IR, but whether this interaction mimics (agonizes) or blocks (antagonizes) the effects of native or synthetic regulatory molecules on target gene expression, as well as the specificity and strength of this interaction.
The receptor expression plasmid was cotransfected along with a reporter plasmid at 50 ng/well, the internal control plasmid pRS-β-Gal at 50 ng/well and filler DNA, pGEM, at 90 ng/well.
Six hours after transfection, media was removed and the cells were washed with phosphate-buffered saline (PBS). Media containing compounds of the present invention in concentrations ranging from 10^−10 to 10^−5 M were added to the cells. […] Retinoids were dissolved in dimethylsulfoxide for use in the transcriptional activation assays. Two to three replicates were used for each sample. Transfections and subsequent procedures were performed on a Biomek 1000 automated workstation.
After 40 hours, the cells were washed with PBS, lysed with a detergent-based buffer and assayed for LUC and β-Gal activities using a luminometer or spectrophotometer, respectively. For each replicate, the normalized response (NR) was calculated as: […]
The mean and standard error of the mean (SEM) of the NR were calculated. Data were plotted as the response of the compound compared to the reference compounds over the range of the dose-response curve. […] Antagonist activity was determined by testing the amount of LUC expression in the presence of the RXR agonists described above at the EC50 concentration for such known compounds. […] In addition, the efficacy of antagonists was determined as a function (%) of maximal inhibition.

[1] = % correction relative to lean values
[2] = plasma triglycerides, % correction relative to lean values, NC = no change
[3] = Table 3 c4, in presence of 3.2×10^−8 M LGD1069

| SMILES | db/db mouse Glu. (D 14) (db/db mouse; [1]) | db/db mouse Trigs. (D3) (db/db mouse; plasma triglycerides, % correction relative to lean values, day 3, NC = no change) | db/db mouse Trigs. (D 14) (db/db mouse; [2]) | effect on the thyroid hormone axis (db/db mouse) | effect on triglycerides (db/db mouse) | insulin sensitizing activity / effect on glucose (db/db mouse) | activity on the RXRα:PPARγ heterodimer, tested alone (RXRα:PPARγ heterodimer) | PPARγ CV-1 (%) Synergy (RXRα:PPARγ heterodimer) | RXRα:PPARγ Heterodimer Cotransfection Assay Synerg Efficacy (%) (RXRα:PPARγ heterodimer) | RXRα:PPARγ Heterodimer Cotransfection Assay Agonist Efficacy (%) (RXRα:PPARγ heterodimer) | activity on the RXRα:PPARγ heterodimer in combination with the PPARγ ligand (RXRα:PPARγ heterodimer) | RXRα Homodimer Cotransfection Assay Agonist Efficacy (%) (RXRα homodimer (RXR:RXR); Table 3 c2, mean of n > 3) | RXRα Homodimer Cotransfection Assay Agonist Efficacy (%) (RXRα homodimer (RXR:RXR); [3]) | activity on the RXR:RXR homodimer (RXRα homodimer (RXR:RXR)) | RXR:RXR CV-1 (%) Antag. (RXRα homodimer (RXR:RXR)) | RXR:RXR CV-1 (%) Ag. (RXRα homodimer (RXR:RXR)) | pEC50 (RXRα homodimer (RXR:RXR)) | db/db mouse T4 (D 3) (db/db mouse; total T4 as % of obese control values, day 3, NC = no change) | pIC50 (RXRα homodimer (RXR:RXR)) | insulin sensitizing activity with thyroid axis suppression and triglyceride elevations (db/db mouse) |
| --- | --- | --- | --- | --- | --- | --- | --- | --- | --- | --- | --- | --- | --- | --- | --- | --- | --- | --- | --- | --- |
| COc1c(/C(C)=C/C=C/C(C)=C/C(=O)O)cc(C(C)(C)C)cc1C(C)(C)C [Compound L1] | 96% | 300% | 54% | suppress the thyroid hormone axis | raise triglycerides | efficacious insulin sensitizers | both agonist and synergistic activity similar to that seen with LGD1069 and LG100268 | 166% | 166% | 59% | both agonist and synergistic activity similar to that seen with LGD1069 and LG100268 | 62% | 7% | full RXR homodimer agonists; also recorded: agonist activity similar in efficacy and potency to the known RXR agonist, LG100268 | 7% | 62% | 7.48 |  |  |  |
| CCOc1c(/C(C)=C/C=C/C(C)=C/C(=O)O)cc(C(C)(C)C)cc1C(C)(C)C [Compound L2] | 91% |  | 116% | suppresses thyroid hormone axis |  |  | partial agonist alone | 69% | 69% | 14% | stronger activity in combination with the PPARγ ligand | 11% | 62% | partial agonist | 62% | 11% | 7.85 | 45% | 8.05 |  |
| CCCOc1c(/C(C)=C/C=C/C(C)=C/C(=O)O)cc(C(C)(C)C)cc1C(C)(C)C [Compound L3] | 75% |  | 133% | absence of detectable suppression of the thyroid hormone axis; also recorded: does not |  |  | only weakly active alone | 25% | 25% | 6% | active in the presence of the PPARγ ligand | 2% | 90% | highly efficacious and potent antagonist activity with little or no agonist activity | 90% | 2% |  |  | 8.30 | maintain the desirable insulin sensitizing activity and eliminate or reduce both the suppression of the thyroid axis and triglyceride elevations; also recorded: maintain the desirable insulin sensitizing activity and minimize both the suppression of the thyroid axis and triglyceride elevations |
| CCCCOc1c(/C(C)=C/C=C/C(C)=C/C(=O)O)cc(C(C)(C)C)cc1C(C)(C)C [Compound L4] | 50% |  | 105% | absence of detectable suppression of the thyroid hormone axis |  |  | only weakly active alone | 20% | 20% | 3% | active in the presence of the PPARγ ligand | 1% | 92% | highly efficacious and potent antagonist activity with little or no agonist activity | 92% | 1% |  |  | 8.05 | maintain the desirable insulin sensitizing activity and eliminate or reduce both the suppression of the thyroid axis and triglyceride elevations; also recorded: maintain the desirable insulin sensitizing activity and minimize both the suppression of the thyroid axis and triglyceride elevations |
| CCCCCCCOc1c(/C(C)=C/C=C/C(C)=C/C(=O)O)cc(C(C)(C)C)cc1C(C)(C)C [Compound L5] | 0% |  |  | no effect | no effect | no effect | not active as an agonist | 6% | 6% | 4% | not active as an agonist | 0% | 94% | full antagonists; also recorded: highly efficacious and potent antagonist activity with little or no agonist activity | 94% | 0% |  |  | 8.00 |  |
